Assay results reported in patent publication US12522595B2, “Bicyclic ether O-glycoprotein-2-acetamido-2-deoxy-3-D-glucopyranosidase inhibitors” (BIOGEN MA INC., priority 2019, dated 2026).

Target: T1, Recombinant full length human OGA enzyme (Homo sapiens, UniProt O60502)
T1 construct: Recombinant full length human OGA enzyme was purchased from Origene; purchased Origene
T1 sequence (O60502 1-916): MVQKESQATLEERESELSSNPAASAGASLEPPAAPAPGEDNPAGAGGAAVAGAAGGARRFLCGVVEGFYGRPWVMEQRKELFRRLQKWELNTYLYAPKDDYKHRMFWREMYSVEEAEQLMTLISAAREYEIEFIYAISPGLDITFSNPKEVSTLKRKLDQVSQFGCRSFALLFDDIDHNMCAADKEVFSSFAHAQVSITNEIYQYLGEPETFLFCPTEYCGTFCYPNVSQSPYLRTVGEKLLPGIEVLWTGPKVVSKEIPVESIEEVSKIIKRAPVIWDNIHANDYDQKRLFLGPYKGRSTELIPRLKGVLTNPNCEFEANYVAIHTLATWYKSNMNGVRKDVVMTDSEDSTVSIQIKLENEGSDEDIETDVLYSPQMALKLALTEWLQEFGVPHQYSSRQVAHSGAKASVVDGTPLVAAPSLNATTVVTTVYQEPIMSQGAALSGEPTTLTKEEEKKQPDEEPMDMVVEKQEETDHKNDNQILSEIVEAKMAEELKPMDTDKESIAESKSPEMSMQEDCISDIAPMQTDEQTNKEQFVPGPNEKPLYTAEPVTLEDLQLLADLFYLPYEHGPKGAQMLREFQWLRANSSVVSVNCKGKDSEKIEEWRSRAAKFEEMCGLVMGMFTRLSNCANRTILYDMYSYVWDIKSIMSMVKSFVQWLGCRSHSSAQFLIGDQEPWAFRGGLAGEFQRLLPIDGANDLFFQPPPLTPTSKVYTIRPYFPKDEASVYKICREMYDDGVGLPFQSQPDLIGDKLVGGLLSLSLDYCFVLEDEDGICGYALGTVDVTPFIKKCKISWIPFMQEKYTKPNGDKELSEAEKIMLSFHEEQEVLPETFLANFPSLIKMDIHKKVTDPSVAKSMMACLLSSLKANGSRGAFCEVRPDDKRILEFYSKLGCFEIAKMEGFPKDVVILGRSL
Assay: OGA enzyme inhibition biochemical assay
Conditions: 1 nM OGA, 100 μM 4-MUGlcNAc (Km), pH 6.4, 90 minutes at room temperature, 10-point dose-response from 20 μM
Procedure, shortened: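 1 nM OGA with 100 μM 4-MUGlcNAc (Km) in McIlvaine buffer pH 6.4, 0.01% BSA, 90 min at room temperature; quenched with 3M glycine pH 10, fluorescence Ex 355/Em 460 nm. 10-point, 4-fold dilutions from 20 μM; 4-parameter variable-slope fit.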

CC(=O)Nc1nc(F)c(CN2C[C@H](Oc3ccc4nn(C)nc4n3)C[C@@H]2C)s1 [Example 151, N-(4-fluoro-5-(((2S,4R)-2-methyl-4-((2-methyl-2H-[1,2,3]triazolo[4,5-b]pyridin-5-yl)oxy)pyrrolidin-1-yl)methyl)thiazol-2-yl)acetamide]
IC50: < 1 nM

CC(=O)Nc1ncc(CN2C[C@H](Oc3ncc4c(n3)CCCC4)C[C@@H]2C)s1 [Example 10, N-(5-(((2S,4R)-2-methyl-4-((5,6,7,8-tetrahydroquinazolin-2-yl)oxy)pyrrolidin-1-yl)methyl)thiazol-2-yl)acetamide]
IC50: < 1 nM

CC(=O)Nc1nc(F)c(CN2C[C@H](Oc3nccc4occc34)C[C@@H]2C)s1 [Example 70, N-(4-fluoro-5-(((2S,4R)-4-(furo[3,2-c]pyridin-4-yloxy)-2-methylpyrrolidin-1-yl)methyl)thiazol-2-yl)acetamide]
IC50: 1.2 nM

CC(=O)Nc1ncc(CN2C[C@H](Oc3nc4ccccc4cc3C#N)C[C@@H]2C)s1 [Example 37, N-(5-(((2S,4R)-4-((3-cyanoquinolin-2-yl)oxy)-2-methylpyrrolidin-1-yl)methyl)thiazol-2-yl)acetamide]
IC50: 16 nM

CC(=O)Nc1nc(F)c(CN2C[C@H](Oc3ccc4nn(C)cc4c3)C[C@@H]2C)s1 [Example 50, N-(4-fluoro-5-(((2S,4R)-2-methyl-4-((2-methyl-2H-indazol-5-yl)oxy)pyrrolidin-1-yl)methyl)thiazol-2-yl)acetamide]
IC50: < 1 nM

CC(=O)Nc1nc(F)c(CN2C[C@H](Oc3ccc4c(cnn4C(F)F)n3)C[C@@H]2C)s1 [Example 153, N-(5-(((2S,4R)-4-((1-(difluoromethyl)-1H-pyrazolo[4,3-b]pyridin-5-yl)oxy)-2-methylpyrrolidin-1-yl)methyl)-4-fluorothiazol-2-yl)acetamide]
IC50: < 1 nM

CC(=O)Nc1ncc(CN2C[C@H](Oc3ccn4nccc4c3)C[C@@H]2C)s1 [Example 59, N-(5-(((2S,4R)-2-methyl-4-(pyrazolo[1,5-a]pyridin-5-yloxy)pyrrolidin-1-yl)methyl)thiazol-2-yl)acetamide]
IC50: < 1 nM

COc1ccc2ccc(O[C@@H]3C[C@H](C)N(Cc4sc(NC(C)=O)nc4F)C3)nc2c1 [Example 80, N-(4-fluoro-5-(((2S,4R)-4-((7-methoxyquinolin-2-yl)oxy)-2-methylpyrrolidin-1-yl)methyl)thiazol-2-yl)acetamide]
IC50: < 1 nM

CC(=O)Nc1nc(F)c(CN2C[C@H](Oc3ncnc4cnccc34)C[C@@H]2C)s1 [Example 118, N-(4-fluoro-5-(((2S,4R)-2-methyl-4-(pyrido[3,4-d]pyrimidin-4-yloxy)pyrrolidin-1-yl)methyl)thiazol-2-yl)acetamide]
IC50: < 1 nM

CC(=O)Nc1nc(F)c(CN2C[C@H](Oc3ncnc4cccnc34)C[C@@H]2C)s1 [Example 116, N-(4-fluoro-5-(((2S,4R)-2-methyl-4-(pyrido[3,2-d]pyrimidin-4-yloxy)pyrrolidin-1-yl)methyl)thiazol-2-yl)acetamide]
IC50: 2.6 nM

CC(=O)Nc1nc(F)c(CN2C[C@H](Oc3nccc4nccnc34)C[C@@H]2C)s1 [Example 115, N-(4-fluoro-5-(((2S,4R)-2-methyl-4-(pyrido[3,4-b]pyrazin-5-yloxy)pyrrolidin-1-yl)methyl)thiazol-2-yl)acetamide]
IC50: 3.8 nM

CC(=O)Nc1ncc(CN2C[C@H](Oc3nccc4occc34)C[C@@H]2C)s1 [Example 69, N-(5-(((2S,4R)-4-(furo[3,2-c]pyridin-4-yloxy)-2-methylpyrrolidin-1-yl)methyl)thiazol-2-yl)acetamide]
IC50: 2.7 nM

CC(=O)Nc1nc(F)c(CN2C[C@H](Oc3nccc4nccn34)C[C@@H]2C)s1 [Example 98, N-(4-fluoro-5-(((2S,4R)-4-(imidazo[1,2-c]pyrimidin-5-yloxy)-2-methylpyrrolidin-1-yl)methyl)thiazol-2-yl)acetamide]
IC50: < 1 nM

CC(=O)Nc1ncc(CN2C[C@H](Oc3ccnc4nn(C)cc34)C[C@@H]2C)s1 [Example 85, N-(5-(((2S,4R)-2-methyl-4-((2-methyl-2H-pyrazolo[3,4-b]pyridin-4-yl)oxy)pyrrolidin-1-yl)methyl)thiazol-2-yl)acetamide]
IC50: < 1 nM

CC(=O)Nc1ncc(CN2C[C@H](Oc3ccnc4c3CCCC4)C[C@@H]2C)s1 [Example 33, N-(5-(((2S,4R)-2-methyl-4-((5,6,7,8-tetrahydroquinolin-4-yl)oxy)pyrrolidin-1-yl)methyl)thiazol-2-yl)acetamide]
IC50: 16 nM

CC(=O)Nc1ncc(CN2C[C@H](Oc3cc4cnn(C)c4cn3)C[C@@H]2C)s1 [Example 88, N-(5-(((2S,4R)-2-methyl-4-((1-methyl-1H-pyrazolo[3,4-c]pyridin-5-yl)oxy)pyrrolidin-1-yl)methyl)thiazol-2-yl)acetamide]
IC50: < 1 nM

CC(=O)Nc1nc(F)c(CN2C[C@H](Oc3ccc4cccnc4n3)C[C@@H]2C)s1 [Example 82, N-(5-(((2S,4R)-4-((1,8-naphthyridin-2-yl)oxy)-2-methylpyrrolidin-1-yl)methyl)-4-fluorothiazol-2-yl)acetamide]
IC50: < 1 nM

CC(=O)Nc1ncc(CN2C[C@H](Oc3ccc4nn(C)cc4c3)C[C@@H]2C)s1 [Example 44, N-(5-(((2S,4R)-2-methyl-4-((2-methyl-2H-indazol-5-yl)oxy)pyrrolidin-1-yl)methyl)thiazol-2-yl)acetamide]
IC50: < 1 nM

CC(=O)Nc1ncc(CN2C[C@H](Oc3cccc4cn(C)nc34)C[C@@H]2C)s1 [Example 159, N-(5-(((2S,4R)-2-methyl-4-((2-methyl-2H-indazol-7-yl)oxy)pyrrolidin-1-yl)methyl)thiazol-2-yl)acetamide]
IC50: < 1 nM

CC(=O)Nc1ncc(CN2C[C@H](Oc3ccnc4ccccc34)C[C@@H]2C)s1 [Example 19, N-(5-(((2S,4R)-2-methyl-4-(quinolin-4-yloxy)pyrrolidin-1-yl)methyl)thiazol-2-yl)acetamide]
IC50: 1.3 nM

CC(=O)Nc1nc(F)c(CN2C[C@H](Oc3ccc4occc4n3)C[C@@H]2C)s1 [Example 66, N-(4-fluoro-5-(((2S,4R)-4-(furo[3,2-b]pyridin-5-yloxy)-2-methylpyrrolidin-1-yl)methyl)thiazol-2-yl)acetamide]
IC50: < 1 nM

CC(=O)Nc1nc(F)c(CN2C[C@H](Oc3cnc4c(ccn4C)n3)C[C@@H]2C)s1 [Example 109, N-(4-fluoro-5-(((2S,4R)-2-methyl-4-((5-methyl-5H-pyrrolo[2,3-b]pyrazin-2-yl)oxy)pyrrolidin-1-yl)methyl)thiazol-2-yl)acetamide]
IC50: < 1 nM

CC(=O)Nc1nc(F)c(CN2C[C@H](Oc3cccc4ncnn34)C[C@@H]2C)s1 [Example 102, N-(5-(((2S,4R)-4-([1,2,4]triazolo[1,5-a]pyridin-5-yloxy)-2-methylpyrrolidin-1-yl)methyl)-4-fluorothiazol-2-yl)acetamide]
IC50: < 1 nM

CC(=O)Nc1ncc(CN2C[C@H](Oc3ncnc4occc34)C[C@@H]2C)s1 [Example 46, N-(5-(((2S,4R)-4-(furo[2,3-d]pyrimidin-4-yloxy)-2-methylpyrrolidin-1-yl)methyl)thiazol-2-yl)acetamide]
IC50: 1.1 nM

CC(=O)Nc1nc(F)c(CN2C[C@H](Oc3ccnc4cn(C)nc34)C[C@@H]2C)s1 [Example 134, N-(4-fluoro-5-(((2S,4R)-2-methyl-4-((2-methyl-2H-pyrazolo[4,3-b]pyridin-7-yl)oxy)pyrrolidin-1-yl)methyl)thiazol-2-yl)acetamide]
IC50: < 1 nM

CC(=O)Nc1ncc(CN2C[C@H](Oc3cc(C(F)(F)F)c4cn(C)nc4n3)C[C@@H]2C)s1 [Example 12, N-(5-(((2S,4R)-2-methyl-4-((2-methyl-4-(trifluoromethyl)-2H-pyrazolo[3,4-b]pyridin-6-yl)oxy)pyrrolidin-1-yl)methyl)thiazol-2-yl)acetamide]
IC50: < 1 nM

CC(=O)Nc1ncc(CN2C[C@H](Oc3ccc4nnc(C(F)(F)F)n4n3)C[C@@H]2C)s1 [Example 18, N-(5-(((2S,4R)-2-methyl-4-((3-(trifluoromethyl)-[1,2,4]triazolo[4,3-b]pyridazin-6-yl)oxy)pyrrolidin-1-yl)methyl)thiazol-2-yl)acetamide]
IC50: < 1 nM

CC(=O)Nc1ncc(CN2C[C@H](Oc3ccnc4nc(C(F)(F)F)nn34)C[C@@H]2C)s1 [Example 34, N-(5-(((2S,4R)-2-methyl-4-((2-(trifluoromethyl)-[1,2,4]triazolo[1,5-a]pyrimidin-7-yl)oxy)pyrrolidin-1-yl)methyl)thiazol-2-yl)acetamide]
IC50: 22 nM
